Measured values published in patent US12649750B2, “Macrocyclic compounds, compositions, and methods of using thereof” (Sionna Therapeutics Inc., priority 2022, dated 2026).

Molecular target: T1, NBD1 (Homo sapiens, UniProt P13569)
T1 construct: Purified recombinant NBD1 was produced using previously described methods; made in house
Test: Aggregation analysis using differential static light scattering (DSLS), thermal stability of NBD1 (ΔTagg)
Assay type: binding
Conditions: ΔTagg versus DMSO control, NBD1 0.2 mg/ml
How it was run: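 Differential static light scattering read from 25° C. to 70° C. every 0.5° C., ramp 1° C./min, on recombinant NBD1 (0.2 mg/ml; Tris/NaCl/MgCl2 buffer with 2 mM ATP, 2 mM DTT, pH 7.6, 1% glycerol) plus compound. Reported ΔTagg subtracts averaged DMSO Tagg from inflection-point Tagg; categories A ≤5, B >5-10, C >10-25° C.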

T1 sequence (P13569 423-646 limits assumed): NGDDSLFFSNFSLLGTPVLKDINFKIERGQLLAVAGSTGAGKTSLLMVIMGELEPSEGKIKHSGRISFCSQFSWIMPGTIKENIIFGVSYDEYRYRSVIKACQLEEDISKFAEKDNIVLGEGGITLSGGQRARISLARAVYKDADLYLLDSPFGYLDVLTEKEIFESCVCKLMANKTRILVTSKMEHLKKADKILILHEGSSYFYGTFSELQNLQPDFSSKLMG

Compound	DSLS 3D (100 μM ΔT)
CC(=O)NC1CS(=O)(=O)CC(C)(C)CCC[C@](C)(c2cccc(C[C@@H](C)C(=O)O)c2)c2nc(n(C)n2)-c2cc(ccc2F)Oc2c(F)c(F)c3[nH]ccc3c21 (single isomer, unassigned) [Compound 369B]	B (a value above 5 °C and less than or equal to 10 °C is marked “B”)
Cn1nc2nc1-c1cc(ccn1)Sc1c(F)cc3[nH]cc(CC(=O)O)c3c1CCS(=O)(=O)CC(C)(C)CCC[C@]2(C)c1ccccc1 [Compound 362, 2-[(6R)-22-Fluoro-3,6,10,10-tetramethyl-12,12-dioxo-6-phenyl-12λ6,24-dithia-3,4,19,28,30-pentazapentacyclo[23.3.1.12,5.015,23.016,20]triaconta-1(29),2(30),4,15,17,20,22,25,27-nonaen-17-yl]acetic Acid]	A (an ΔTagg value less than or equal to 5 °C is marked “A”)
CC(=O)OC[C@H](Cc1cccc([C@@]2(C)CCCC(C)(C)CS(=O)(=O)CCc3c(c(F)cc4[nH]ccc34)Sc3ccnc(c3)-c3nc2nn3C)c1)OC(C)=O [Compound 332]	A (an ΔTagg value less than or equal to 5 °C is marked “A”)
CNC1CS(=O)(=O)CC(C)(C)CCC[C@](C)(c2cccc(C[C@@H](C)C(=O)O)c2)c2nc(n(C)n2)-c2cc(ccc2F)Oc2c(F)c(F)c3[nH]ccc3c21 (stereo partly drawn) [Compound 360D, (2R)-2-Methyl-3-[3-[(6R)-21,22,28-trifluoro-3,6,10,10-tetramethyl-14-(methylamino)-12,12-dioxo-24-oxa-12λ6-thia-3,4,19,30-tetrazapentacyclo[23.3.1.12,5.015,23.016,20]triaconta-1(29),2(30),4,15,17,20,22,25,27-nonaen-6-yl]phenyl]propanoic Acid]	A (an ΔTagg value less than or equal to 5 °C is marked “A”)
Cn1nc2nc1-c1cc(ccn1)Sc1c(F)cc3[nH]ccc3c1CCS(=O)(=O)CC(C)(C)CCC[C@]2(C)c1cccc(C[C@H](O)CO)c1 [Compound 333, (2S)-3-[3-[(6R)-22-Fluoro-3,6,10,10-tetramethyl-12,12-dioxo-12λ6,24-dithia-3,4,19,28,30-pentazapentacyclo[23.3.1.12,5.015,23.016,20]triaconta-1(29),2(30),4,15,17,20,22,25,27-nonaen-6-yl]phenyl]propane-1,2-diol]	B (a value above 5 °C and less than or equal to 10 °C is marked “B”)
C[C@@H](Cc1cccc(C2(C)CCCC(C)(C)CS(=O)(=O)CCc3c(c(F)cc4[nH]ccc34)S(=O)(=O)c3ccnc(c3)-c3nc2nn3C)n1)C(=O)O (stereo partly drawn) [Compound 315E, (2S)-3-[6-(22-fluoro-3,6,10,10-tetramethyl-12,12,24,24-tetraoxo-12λ6,24λ6-dithia-3,4,19,28,30-pentazapentacyclo[23.3.1.12,5.015,23.016,20]triaconta-1(29),2(30),4,15,17,20,22,25,27-nonaen-6-yl)-2-pyridyl]-2-methyl-propanoic Acid]	A (an ΔTagg value less than or equal to 5 °C is marked “A”)
Cn1nc2nc1-c1cc(ccn1)Oc1c(F)c(F)c3[nH]cc(CC(=O)O)c3c1CCS(=O)(=O)CC(C)(C)CCC[C@]2(C)c1ccccc1 [Compound 363, 2-[(6R)-21,22-Difluoro-3,6,10,10-tetramethyl-12,12-dioxo-6-phenyl-24-oxa-12λ6-thia-3,4,19,28,30-pentazapentacyclo[23.3.1.12,5.015,23.016,20]triaconta-1(29),2(30),4,15,17,20,22,25,27-nonaen-17-yl]acetic acid]	A (an ΔTagg value less than or equal to 5 °C is marked “A”)
Cn1nc2nc1-c1cc(ccc1F)[S+]([O-])c1c(F)c(F)c3[nH]cc(CC(=O)O)c3c1CCS(=O)(=O)CC(C)(C)CCC[C@]2(C)c1ccccc1 (single isomer, unassigned) [Compound 326]	A (an ΔTagg value less than or equal to 5 °C is marked “A”)
Cn1nc2nc1-c1cc(ccn1)S(=O)(=O)c1c(F)c(F)c3[nH]ccc3c1CCS(=O)(=O)CC(C)(C)CCC[C@]2(C)c1cccc(C[C@H](O)CO)c1 [Compound 342]	A (an ΔTagg value less than or equal to 5 °C is marked “A”)
C[C@@H](Cc1cccc(C2(C)CCCC(C)(C)CS(=O)(=O)CCc3c(c(F)cc4[nH]ccc34)[S+]([O-])c3ccnc(c3)-c3nc2nn3C)n1)C(=O)O (single isomer, unassigned) [Compound 315A]	A (an ΔTagg value less than or equal to 5 °C is marked “A”)
COCC(Cc1cccc([C@@]2(C)CCCC(C)(C)CS(=O)(=O)CCc3c(c(F)c(F)c4[nH]ccc34)[S+]([O-])c3ccnc(c3)-c3nc2nn3C)c1)C(=O)O (single isomer, unassigned) [Compound 375]	B (a value above 5 °C and less than or equal to 10 °C is marked “B”)
Cn1nc2nc1-c1cc(ccc1F)Oc1c(F)c(F)c3[nH]cc(CC(=O)O)c3c1CCS(=O)(=O)CC(C)(C)CCC[C@]2(C)c1ccccc1 [Compound 361, 2-[(6R)-21,22,28-Trifluoro-3,6,10,10-tetramethyl-12,12-dioxo-6-phenyl-24-oxa-12λ6-thia-3,4,19,30-tetrazapentacyclo[23.3.1.12,5.015,23.016,20]triaconta-1(29),2(30),4,15,17,20,22,25,27-nonaen-17-yl]acetic Acid]	A (an ΔTagg value less than or equal to 5 °C is marked “A”)
C[C@H](Cc1cccc([C@@]2(C)CCCC(C)(C)CS(=O)(=O)CCc3c(c(F)cc4[nH]ccc34)[S+]([O-])c3cc(c(F)cc3N)-c3nc2nn3C)c1)C(=O)O (single isomer, unassigned) [Compound 379B]	A (an ΔTagg value less than or equal to 5 °C is marked “A”)
C[C@@H](Cc1cccc([C@@]2(C)CCCC(C)(C)CS(=O)(=O)CCc3c(c(F)c(F)c4[nH]ncc34)Oc3ccc(F)c(c3)-c3nc2nn3C)c1)C(=O)O [Compound 382, (2S)-2-Methyl-3-[3-[(6R)-21,22,28-trifluoro-3,6,10,10-tetramethyl-12,12-dioxo-24-oxa-12λ6-thia-3,4,18,19,30-pentazapentacyclo[23.3.1.12,5.015,23.016,20]triaconta-1(29),2(30),4,15,17,20,22,25,27-nonaen-6-yl]phenyl]propanoic Acid]	B (a value above 5 °C and less than or equal to 10 °C is marked “B”)
CC(=O)OC[C@H](Cc1cccc([C@@]2(C)CCCC(C)(C)CS(=O)(=O)CCc3c(c(F)c(F)c4[nH]ccc34)Sc3ccnc(c3)-c3nc2nn3C)c1)OC(C)=O [Compound 339, [(2S)-2-acetoxy-3-[3-[(6R)-21,22-difluoro-3,6,10,10-tetramethyl-12,12-dioxo-12λ6,24-dithia-3,4,19,28,30-pentazapentacyclo[23.3.1.12,5.015,23.016,20]triaconta-1(29),2(30),4,15,17,20,22,25,27-nonaen-6-yl]phenyl]propyl]Acetate]	A (an ΔTagg value less than or equal to 5 °C is marked “A”)
Cn1nc2nc1-c1cc(ccn1)S(=O)(=O)c1c(F)cc3[nH]ccc3c1CCS(=O)(=O)CC(C)(C)CCC[C@]2(C)c1cccc(C[C@H](O)CO)c1 [Compound 335, (2S)-3-[3-[(6R)-22-Fluoro-3,6,10,10-tetramethyl-12,12,24,24-tetraoxo-12λ6,24λ6-dithia-3,4,19,28,30-pentazapentacyclo[23.3.1.12,5.015,23.016,20]triaconta-1(29),2(30),4,15,17,20,22,25,27-nonaen-6-yl]phenyl]propane-1,2-diol]	A (an ΔTagg value less than or equal to 5 °C is marked “A”)
C[C@@H](Cc1cccc([C@@]2(C)CCCC(C)(C)CS(=O)(=O)CCc3c(c(F)c(F)c4[nH]ccc34)S(=O)(=O)c3ccnc(c3)-c3nc2nn3C)c1)C(=O)O [Compound 346, (2S)-3-[3-[(6R)-21,22-Difluoro-3,6,10,10-tetramethyl-12,12,24,24-tetraoxo-12λ6,24λ6-dithia-3,4,19,28,30-pentazapentacyclo[23.3.1.12,5.015,23.016,20]triaconta-1(29),2(30),4,15,17,20,22,25,27-nonaen-6-yl]phenyl]-2-methyl-propanoic Acid]	B (a value above 5 °C and less than or equal to 10 °C is marked “B”)
C[C@H](Cc1cccc([C@@]2(C)CCCC(C)(C)CS(=O)(=O)CCc3c(c(F)cc4[nH]ccc34)S(=O)(=O)c3cc(c(F)cc3N)-c3nc2nn3C)c1)C(=O)O [Compound 379C, (2R)-3-[3-[(6R)-26-Amino-22,28-difluoro-3,6,10,10-tetramethyl-12,12,24,24-tetraoxo-12λ6,24λ6-dithia-3,4,19,30-tetrazapentacyclo[23.3.1.12,5.015,23.016,20]triaconta-1(29),2(30),4,15,17,20,22,25,27-nonaen-6-yl]phenyl]-2-methyl-propanoic acid]	A (an ΔTagg value less than or equal to 5 °C is marked “A”)
C[C@@H](Cc1cccc([C@@]2(C)CCCC(C)(C)CS(=O)(=O)CCc3c[nH]c4c(F)c(F)c(cc34)Oc3ccc(F)c(c3)-c3nc2nn3C)c1)C(=O)O [Compound 353, (2S)-2-Methyl-3-[3-[(12R)-6,25,26-trifluoro-9,12,16,16-tetramethyl-18,18-dioxo-2-oxa-18λ6-thia-9,10,23,29-tetrazapentacyclo[19.5.2.13,7.18,11.024,28]triaconta-1(26),3,5,7(30),8(29),10,21,24,27-nonaen-12-yl]phenyl]propanoic Acid]	A (an ΔTagg value less than or equal to 5 °C is marked “A”)
